The text below walks through data of publication PMC10880909, “Correction: A high-throughput effector screen identifies a novel small molecule scaffold for inhibition of ten-eleven translocation dioxygenase 2” (RSC Medicinal Chemistry, 2024).

For this experiment, the target named is hTET2 (Homo sapiens, UniProt Q6N021). Description: MALDI-based inhibition assay of hTET2. The following applies: for hTET2 inhibition, result in words: additional SAR / re-synthesis.

For `CC(C)OS(=O)(=O)c1ccc(F)c2ncc(I)cc12` [Compound 5], the IC50 (in general, the concentration at which inhibition is half-maximal) was more than 200 µM.

In turn, `CCCCCOS(=O)(=O)c1ccc(F)c2ncc(I)cc12` [Compound 6] had an IC50 of more than 200 µM.

Molecule `NS(=O)(=O)c1ccc(F)c2ncc(I)cc12` [Compound 8] came in with an IC50 of more than 200 µM.

For `CNS(=O)(=O)c1ccc(F)c2ncc(I)cc12` [Compound 9], the IC50 is more than 200 µM.

Molecule `O=S(=O)(c1ccc(F)c2ncc(I)cc12)N1CCCC1` [Compound 10] returned an IC50 of more than 200 µM.

Molecule `O=S(=O)(Nc1ccccc1)c1ccc(F)c2ncc(I)cc12` [Compound 11] came in with an IC50 of more than 200 µM.

`O=S(=O)(NCc1ccccc1)c1ccc(F)c2ncc(I)cc12` [Compound 13]: the IC50 is more than 200 µM.

The molecule `O=S(=O)(NCCc1ccccc1)c1ccc(F)c2ncc(I)cc12` [Compound 14] displayed an IC50 of more than 200 µM.

`O=S(=O)(Nc1cccc(O)c1)c1ccc(F)c2ncc(I)cc12` [Compound 16] showed an IC50 of more than 200 µM.

Consider `O=S(=O)(O)c1ccc(O)c2ncccc12` [Compound 18], for which the IC50 was 12.1 ± 4.2 µM.

With `O=C(O)c1ccc(F)c2ncccc12` [Compound 19], the IC50 was more than 200 µM and the “hTET2 inhibition, result in words” value is “inactivity”.

With `Oc1cc2c(cc1O)CNCC2` [Compound 21, tetrahydroisoquinoline-6,7-diol], the IC50 was 8.6 µM and the “hTET2 inhibition, result in words” value is reported as “micromolar IC50 values”.

Regarding `O=C(O)c1ncccc1O` [Compound 22, 3-hydroxypicolinic acid], half-maximal inhibition (IC50) was put at 48.6 µM and the “hTET2 inhibition, result in words” value was “micromolar IC50 values”.
